In PubChem BioAssay (NCI):
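Cultured in 96-well plates, cells were exposed to test compound for 48 hours across five concentrations. GI50 = concentration required for 50% inhibition of growth. TGI: concentration producing complete growth inhibition.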

How the values were obtained:
Assay in all cases: growth of human tumour cells (NCI), 48 h
[1] = tested on: 786-0 renal
[2] = tested on: A498 renal
[3] = tested on: A549 NSCLC
[4] = tested on: ACHN renal
[5] = tested on: BT-549 breast
[6] = tested on: CAKI-1 renal
[7] = tested on: CCRF-CEM leukemia
[8] = tested on: COLO 205 colon
[9] = tested on: DU-145 prostate
[10] = tested on: EKVX NSCLC
[11] = tested on: HCC-2998 colon
[12] = tested on: HCT-116 colon
[13] = tested on: HCT-15 colon
[14] = tested on: HL-60(TB) leukemia
[15] = tested on: HOP-62 NSCLC
[16] = tested on: HOP-92 NSCLC
[17] = tested on: HS 578T breast
[18] = tested on: HT29 colon
[19] = tested on: IGROV1 ovarian
[20] = tested on: K-562 leukemia
[21] = tested on: KM12 colon
[22] = tested on: LOX IMVI melanoma
[23] = tested on: M14 melanoma
[24] = tested on: MALME-3M melanoma
[25] = tested on: MCF7 breast
[26] = tested on: MDA-MB-231 breast
[27] = tested on: MDA-MB-435
[28] = tested on: MDA-MB-468 breast
[29] = tested on: MOLT-4 leukemia
[30] = tested on: NCI-H226 lung
[31] = tested on: NCI-H23 lung
[32] = tested on: NCI-H460 lung
[33] = tested on: NCI-H522 lung
[34] = tested on: NCI/ADR-RES ovarian
[35] = tested on: OVCAR-3 ovarian
[36] = tested on: OVCAR-4 ovarian
[37] = tested on: OVCAR-5 ovarian
[38] = tested on: OVCAR-8 ovarian
[39] = tested on: PC-3 prostate
[40] = tested on: RPMI-8226 leukemia
[41] = tested on: RXF 393 renal
[42] = tested on: SF-268 CNS
[43] = tested on: SF-295 CNS
[44] = tested on: SF-539 CNS
[45] = tested on: SK-MEL-2 melanoma
[46] = tested on: SK-MEL-28 melanoma
[47] = tested on: SK-MEL-5 melanoma
[48] = tested on: SK-OV-3 ovarian
[49] = tested on: SN12C renal
[50] = tested on: SNB-19 CNS
[51] = tested on: SNB-75 CNS
[52] = tested on: SR leukemia
[53] = tested on: SW-620 colon
[54] = tested on: T-47D breast
[55] = tested on: TK-10 renal
[56] = tested on: U251 CNS
[57] = tested on: UACC-257 melanoma
[58] = tested on: UACC-62 melanoma
[59] = tested on: UO-31 renal

CN1CCN(Cc2ccc(C(=O)Nc3cccc(C#Cc4cccc5[nH]nc(N)c45)c3)cc2C(F)(F)F)CC1
GI50 [1]: 1280 nM
TGI [1]: 2610 nM
GI50 [2]: 2380 nM
TGI [2]: 3950 nM
GI50 [3]: 721 nM
TGI [3]: 2010 nM
GI50 [4]: 409 nM
TGI [4]: 1400 nM
GI50 [5]: 1800 nM
TGI [5]: 4060 nM
GI50 [6]: 1160 nM
TGI [6]: 2370 nM
GI50 [7]: 1170 nM
TGI [7]: 3330 nM
GI50 [8]: 862 nM
TGI [8]: 2210 nM
GI50 [9]: 1200 nM
TGI [9]: 2460 nM
GI50 [10]: 1090 nM
TGI [10]: 2300 nM
GI50 [11]: 880 nM
TGI [11]: 2190 nM
GI50 [12]: 420 nM
TGI [12]: 1620 nM
GI50 [13]: 648 nM
TGI [13]: 1780 nM
GI50 [14]: 278 nM
TGI [14]: 1600 nM
GI50 [15]: 1470 nM
TGI [15]: 2890 nM
GI50 [16]: 285 nM
TGI [16]: 1400 nM
GI50 [17]: 1330 nM
TGI [17]: 4640 nM
GI50 [18]: 603 nM
TGI [18]: 1940 nM
GI50 [19]: 387 nM
TGI [19]: 1440 nM
TGI [20]: 1020 nM
GI50 [21]: 1410 nM
TGI [21]: 2930 nM
GI50 [22]: 469 nM
TGI [22]: 1610 nM
GI50 [23]: 420 nM
TGI [23]: 1650 nM
GI50 [24]: 284 nM
TGI [24]: 1200 nM
GI50 [25]: 1510 nM
TGI [25]: 2900 nM
GI50 [26]: 401 nM
TGI [26]: 1730 nM
GI50 [27]: 1090 nM
TGI [27]: 2450 nM
GI50 [28]: 760 nM
TGI [28]: 2080 nM
GI50 [29]: 494 nM
TGI [29]: 2280 nM
GI50 [30]: 1000 nM
TGI [30]: 2180 nM
GI50 [31]: 1250 nM
TGI [31]: 2530 nM
GI50 [32]: 982 nM
TGI [32]: 2530 nM
GI50 [33]: 752 nM
TGI [33]: 2160 nM
GI50 [34]: 1480 nM
TGI [34]: 3320 nM
GI50 [35]: 1000 nM
TGI [35]: 2510 nM
GI50 [36]: 889 nM
TGI [36]: 3140 nM
GI50 [37]: 1280 nM
TGI [37]: 2600 nM
GI50 [38]: 1160 nM
TGI [38]: 2380 nM
GI50 [39]: 1000 nM
TGI [39]: 2770 nM
GI50 [40]: 1120 nM
TGI [40]: 3260 nM
GI50 [41]: 571 nM
TGI [41]: 1820 nM
GI50 [42]: 1070 nM
TGI [42]: 2420 nM
GI50 [43]: 1330 nM
TGI [43]: 2630 nM
GI50 [44]: 305 nM
TGI [44]: 1350 nM
GI50 [45]: 1530 nM
TGI [45]: 3030 nM
GI50 [46]: 1260 nM
TGI [46]: 2530 nM
GI50 [47]: 1490 nM
TGI [47]: 2810 nM
GI50 [48]: 1940 nM
TGI [48]: 3470 nM
GI50 [49]: 739 nM
TGI [49]: 2140 nM
GI50 [50]: 1840 nM
TGI [50]: 3250 nM
GI50 [51]: 1450 nM
TGI [51]: 3690 nM
GI50 [52]: 1100 nM
TGI [52]: 3350 nM
GI50 [53]: 968 nM
TGI [53]: 2370 nM
GI50 [54]: 1560 nM
TGI [54]: 3270 nM
GI50 [55]: 1750 nM
TGI [55]: 3170 nM
GI50 [56]: 1220 nM
TGI [56]: 2470 nM
GI50 [57]: 1360 nM
TGI [57]: 2730 nM
GI50 [58]: 1140 nM
TGI [58]: 2390 nM
GI50 [59]: 854 nM
TGI [59]: 2090 nM
